Test results published in patent EP4741383A1, “COMPOUND AND USE THEREOF AS ANTI-CANCER DRUG” (Tyligand Bioscience (Shanghai) Limited, priority 2023, dated 2025).

Tests used:
CYP2C19 = target: T1, CYP2C19 (Homo sapiens, UniProt P33261); test: CYP450 inhibition in human liver microsomes, CYP2C19; type: in vitro ADME; conditions: pH 7.4, read-out: % CYP inhibition @ 10 µM 2C19
T1 construct: tissue Corning or Xenotech; host or cells: human liver microsomes
From the text: (§1) According to standard methods in the field for the study of cytochrome P450 enzyme systems, such as the method described in Kerns, Edward H. and Di Li et al., Drug-like Properties: Concepts, Structure Design and Methods: from ADME to Toxicity Optimization (2008), San Diego, Academic Press, and Lin, Tong et al., In Vitro Assessment of Cytochrome P450 Inhibition: Strategies for Increasing LC/MS-Based Assay Throughput Using a One-Point IC50 Method and Multiplexing High-Performance Liquid Chromatography (J. Pharm. Sci. 2007, 96 (9), 2485). The inhibitory effect of the disclosed compounds on the cytochrome P450 enzyme system was similarly examined below.
(§2) Human liver microsomes were purchased from Corning or Xenotech. The test compounds were evaluated by detecting the metabolism of substrates for different Cyp450 isoforms by human liver microsomes.
(§3) 0.1 M potassium phosphate buffer (K-buffer, pH 7.4) was pre-warmed.
(§4) 100 mM K-buffer was prepared by mixing 9.5 mL of stock solution A (1 M potassium dihydrogen phosphate, prepared by dissolving 136.5 g of potassium dihydrogen phosphate in 1 L of Milli-Q water) with 40.5 mL of stock solution B (1 M potassium hydrogen phosphate, prepared by dissolving 174.2 g of potassium hydrogen phosphate in 1 L of Milli-Q water). The total volume was adjusted to 500 mL with Milli-Q water, and the buffer was titrated to pH 7.4 using KOH or H3PO4.
(§5) Test compound solution and specific inhibitor solution (400× dilution) were prepared in a 96-well plate. For the test compound, 8 µL of 10 mM test compound was transferred into 12 µL of ACN. For specific inhibitors of CYP1A2, CYP2C9, and CYP2D6: 12 µL of 1 mM α-naphthoflavone, 10 µL of 40 mM sulfaphenazole, 10 µL of 10 mM quinidine, and 8 µL of DMSO were mixed. For specific inhibitors of CYP3A4, CYP2B6, CYP2C8, and CYP2C19: 8 µL of DMSO stock solution was added to 12 µL of ACN.
(§6) A 4× diluted NADPH solution was prepared by dissolving 66.7 mg of NADPH in 10 mL of 0.1 M K-buffer (pH 7.4). […]

CYP2C8 = target: T2, CYP2C8 (Homo sapiens, UniProt P10632); test: CYP450 inhibition in human liver microsomes, CYP2C8; type: in vitro ADME; conditions: pH 7.4, read-out: % CYP inhibition @ 10 µM 2C8
T2 construct: tissue Corning or Xenotech; host or cells: human liver microsomes
T2 sequence (P10632 1-490): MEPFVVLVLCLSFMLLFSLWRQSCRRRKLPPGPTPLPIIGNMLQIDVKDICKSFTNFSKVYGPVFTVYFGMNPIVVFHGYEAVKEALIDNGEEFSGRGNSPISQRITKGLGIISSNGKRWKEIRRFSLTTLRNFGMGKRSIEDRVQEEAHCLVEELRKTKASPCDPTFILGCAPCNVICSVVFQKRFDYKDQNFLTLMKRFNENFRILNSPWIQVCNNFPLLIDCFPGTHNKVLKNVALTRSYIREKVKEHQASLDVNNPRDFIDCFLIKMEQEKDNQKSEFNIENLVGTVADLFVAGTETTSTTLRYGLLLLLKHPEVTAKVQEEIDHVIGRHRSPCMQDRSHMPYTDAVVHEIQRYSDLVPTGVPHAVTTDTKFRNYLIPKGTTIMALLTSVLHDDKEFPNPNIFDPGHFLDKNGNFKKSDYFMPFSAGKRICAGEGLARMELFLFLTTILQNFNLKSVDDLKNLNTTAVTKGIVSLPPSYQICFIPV
From the text: as §1, §2, §3, §4, §5, §6

T1 sequence (P33261 whole entry): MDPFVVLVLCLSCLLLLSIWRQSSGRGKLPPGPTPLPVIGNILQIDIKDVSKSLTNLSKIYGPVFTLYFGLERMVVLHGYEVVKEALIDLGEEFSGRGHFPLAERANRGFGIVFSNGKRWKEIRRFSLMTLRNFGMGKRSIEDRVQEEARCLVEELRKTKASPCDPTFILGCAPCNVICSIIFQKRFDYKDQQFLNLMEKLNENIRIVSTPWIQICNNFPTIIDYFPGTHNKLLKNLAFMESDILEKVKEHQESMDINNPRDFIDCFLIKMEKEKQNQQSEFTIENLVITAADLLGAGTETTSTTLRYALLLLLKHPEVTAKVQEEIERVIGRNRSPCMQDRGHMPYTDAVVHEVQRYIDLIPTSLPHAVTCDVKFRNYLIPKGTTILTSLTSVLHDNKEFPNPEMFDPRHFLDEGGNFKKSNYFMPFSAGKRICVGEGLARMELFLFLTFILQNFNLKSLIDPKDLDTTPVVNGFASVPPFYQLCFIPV

| inhibition at 45 min, 10 µM (CYP2C19) | inhibition at 10 min, 10 µM (CYP2C8) | Compound |
| --- | --- | --- |
| 1.78% | 43.8% | O=C(Nc1ccc(-c2cc3cc(F)c(-c4nnn[nH]4)cc3n2C2CCC2)cc1)C(=O)Nc1ccc(N2CCC(CO)CC2)cc1 [Example 23] |
| 13.9% | 39.2% | O=C(Nc1ccc(-c2cc3cc(F)c(-c4nnn[nH]4)cc3n2C2CCC2)cc1)C(=O)Nc1ccc(N2CCC3(CCOC3)CC2)cc1 [Example 67] |
| 13.5% | 42.1% | CC1(n2c(-c3ccc(NC(=O)C(=O)Nc4ccc(N5CCC6(CCOC6)CC5)cc4)cc3)cc3cc(F)c(-c4nnn[nH]4)cc32)CCC1 [Example 68] |
